According to ChEMBL document CHEMBL1201862, “PubChem BioAssay data set” (2004):
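These data come from cells grown in 96-well plates and exposed to compound for 48 hours at five concentrations. Here, GI50 denotes the concentration required for 50% inhibition of growth.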 The source made the active and inactive calls. Cut-off read from the data, not from the text of the source: active = GI50 up to about 1.1 µM and inactive = higher.

What was measured:
Test in all cases: NCI tumour cell line growth inhibition, 48 h
A498 = test system: A498
CAKI-1 = test system: CAKI-1
COLO 205 = test system: COLO 205
DU-145 = test system: DU-145
EKVX = test system: EKVX
IGROV-1 = test system: IGROV-1
K562 = test system: K562
M14 = test system: M14
MDA-MB-435 = test system: MDA-MB-435
NCI-H460 = test system: NCI-H460
OVCAR-3 = test system: OVCAR-3
OVCAR-4 = test system: OVCAR-4
OVCAR-5 = test system: OVCAR-5
OVCAR-8 = test system: OVCAR-8
PC-3 = test system: PC-3
RXF 393 = test system: RXF 393
SF-539 = test system: SF-539
SK-MEL-28 = test system: SK-MEL-28
SN12C = test system: SN12C
SR = test system: SR

| SMILES | GI50 (A498) | GI50 (CAKI-1) | GI50 (COLO 205) | GI50 (DU-145) | GI50 (EKVX) | GI50 (IGROV-1) | GI50 (K562) | GI50 (M14) | GI50 (MDA-MB-435) | GI50 (NCI-H460) | GI50 (OVCAR-3) | GI50 (OVCAR-4) | GI50 (OVCAR-5) | GI50 (OVCAR-8) | GI50 (PC-3) | GI50 (RXF 393) | GI50 (SF-539) | GI50 (SK-MEL-28) | GI50 (SN12C) | GI50 (SR) |
| --- | --- | --- | --- | --- | --- | --- | --- | --- | --- | --- | --- | --- | --- | --- | --- | --- | --- | --- | --- | --- |
| Nc1ccc2c3[nH]c4cc(N)ccc4cc-3nc2c1 | 0.138 µM (active) | 0.203 µM (active) | 0.18 µM (active) | 0.318 µM (active) | 0.267 µM (active) | 2.16 µM (inactive) | 5.07 µM (inactive) | 0.344 µM (active) | 0.136 µM (active) | 0.0775 µM (active) | 0.349 µM (active) | 0.283 µM (active) | 0.291 µM (active) | 0.151 µM (active) | 0.224 µM (active) | 0.32 µM (active) | 0.231 µM (active) | 0.0746 µM (active) | 0.138 µM (active) | 0.0535 µM (active) |
| NC(=O)N(O)c1cccc(Br)c1 | > 100 µM (inactive) | > 100 µM (inactive) | > 100 µM (inactive) | > 100 µM (inactive) | > 100 µM (inactive) | > 100 µM (inactive) | > 100 µM (inactive) | > 100 µM (inactive) | > 100 µM (inactive) | > 100 µM (inactive) | > 100 µM (inactive) | > 100 µM (inactive) | > 100 µM (inactive) | > 100 µM (inactive) | > 100 µM (inactive) | > 100 µM (inactive) | > 100 µM (inactive) | > 100 µM (inactive) | > 100 µM (inactive) | > 100 µM (inactive) |
| Brc1ccc2[nH]cc(-c3csc(-c4c[nH]c5ccc(Br)cc45)n3)c2c1 | 2.13 µM (inactive) | 1.95 µM (inactive) | 1.61 µM (inactive) | 2.52 µM (inactive) | 1.48 µM (inactive) | 1.58 µM (inactive) | 1.77 µM (inactive) | 1.53 µM (inactive) | 1.93 µM (inactive) | 1.73 µM (inactive) | 2.45 µM (inactive) | 2.26 µM (inactive) | 1.97 µM (inactive) | 2.45 µM (inactive) | 1.97 µM (inactive) | 2.14 µM (inactive) | 1.56 µM (inactive) | 2.11 µM (inactive) | 2.83 µM (inactive) | 1.63 µM (inactive) |
| CN1CCN(c2c(Cl)cc(Cl)c3[nH]c4ccccc4c(=O)c23)CC1 | 3.96 µM (inactive) | 5.68 µM (inactive) | 4.17 µM (inactive) | 5.4 µM (inactive) | 10.5 µM (inactive) | 4.46 µM (inactive) | 3.66 µM (inactive) | 6.01 µM (inactive) | 5.71 µM (inactive) | 11.2 µM (inactive) | 10.2 µM (inactive) | 11.7 µM (inactive) | 10.2 µM (inactive) | 5.07 µM (inactive) | 6.38 µM (inactive) | 12.6 µM (inactive) | 3.94 µM (inactive) | 13.1 µM (inactive) | 6.12 µM (inactive) | 0.301 µM (active) |
| CN(NC1=NCCO1)c1ccc2ccccc2c1 | 44.3 µM (inactive) | 32.9 µM (inactive) | 41.1 µM (inactive) | > 100 µM (inactive) | 39.5 µM (inactive) | 39.7 µM (inactive) | 28.3 µM (inactive) | 36 µM (inactive) | 34.5 µM (inactive) | 27.2 µM (inactive) | 23.6 µM (inactive) | 42 µM (inactive) | 80 µM (inactive) | 47.3 µM (inactive) | 40.3 µM (inactive) | 38.6 µM (inactive) | 23.6 µM (inactive) | 70.3 µM (inactive) | 62.8 µM (inactive) | 39.6 µM (inactive) |
| Brc1ccc2[nH]cc(-c3csc(-c4c[nH]c5ccccc45)n3)c2c1 | 5.19 µM (inactive) | 2.9 µM (inactive) | 2.08 µM (inactive) | 3.52 µM (inactive) | 2.69 µM (inactive) | 2.2 µM (inactive) | 3.03 µM (inactive) | 1.98 µM (inactive) | 3.84 µM (inactive) | 2.61 µM (inactive) | 3.01 µM (inactive) | 5.42 µM (inactive) | 2.02 µM (inactive) | 4.9 µM (inactive) | 3.54 µM (inactive) | 3.61 µM (inactive) | 4.72 µM (inactive) | 5.06 µM (inactive) | 3.66 µM (inactive) | 3.39 µM (inactive) |
| CN(C)CCCn1c2ccccc2c2cnccc21 | 38.5 µM (inactive) | 38.7 µM (inactive) | 14.6 µM (inactive) | 43.9 µM (inactive) | 36.1 µM (inactive) | 64.7 µM (inactive) | 26.2 µM (inactive) | 16.6 µM (inactive) | 28.3 µM (inactive) | 23.9 µM (inactive) | 42.9 µM (inactive) | 39.6 µM (inactive) | 38.4 µM (inactive) | 55.3 µM (inactive) | 32.3 µM (inactive) | 57.4 µM (inactive) | 20.6 µM (inactive) | 48.9 µM (inactive) | 17.1 µM (inactive) | 19.2 µM (inactive) |
| COC(=O)c1ccccc1/C=C1\Cc2c(ccc3c2CCC3)C1=O | > 100 µM (inactive) | > 100 µM (inactive) | > 100 µM (inactive) | > 100 µM (inactive) | > 100 µM (inactive) | > 100 µM (inactive) | > 100 µM (inactive) | > 100 µM (inactive) | > 100 µM (inactive) | > 100 µM (inactive) | > 100 µM (inactive) | > 100 µM (inactive) | > 100 µM (inactive) | 78.9 µM (inactive) | > 100 µM (inactive) | > 100 µM (inactive) | > 100 µM (inactive) | > 100 µM (inactive) | > 100 µM (inactive) | > 100 µM (inactive) |
| Cc1cccc2c(N)c3cccc(C(=O)NCCCNCCN)c3nc12 | 11.4 µM (inactive) | 7.91 µM (inactive) | 6.37 µM (inactive) | 3.59 µM (inactive) | 13.8 µM (inactive) | 4.83 µM (inactive) | 12.9 µM (inactive) | 14.1 µM (inactive) | 15.5 µM (inactive) | 1.1 µM (active) | 20.2 µM (inactive) | 1.87 µM (inactive) | 11 µM (inactive) | 5.32 µM (inactive) | 14.3 µM (inactive) | 3.4 µM (inactive) | 2.17 µM (inactive) | 15.5 µM (inactive) | 0.121 µM (active) | 2.04 µM (inactive) |
| CN1C(=O)c2c(c3c4ccccc4n(C4OC(CO)C(O)C(O)C4O)c3c3[nH]c4ccccc4c23)C1=O (stereo not given) | 1.45 µM (inactive) | 1.9 µM (inactive) | 0.944 µM (active) | 2.74 µM (inactive) | 3.02 µM (inactive) | 0.9 µM (active) | 0.736 µM (active) | 2.34 µM (inactive) | 2.29 µM (inactive) | 3.1 µM (inactive) | 2.02 µM (inactive) | 2.37 µM (inactive) | 3.22 µM (inactive) | 1.42 µM (inactive) | 1.92 µM (inactive) | 3.55 µM (inactive) | 1.36 µM (inactive) | 2.14 µM (inactive) | 2.82 µM (inactive) | 0.164 µM (active) |
